Counter-ions that a name gives are not always drawn.

The first assay relates to human ABCA1 promoter. Nature of the assay: ABCA1 promoter test (luciferase reporter in stably transfected THP1 cell line). The class given is cell-based. The settings on record: Homo sapiens, THP-1, 24 h; read-out: E50 ABCA1. As to the method: The potency of substances which activate expression of the human ABCA1 gene via its promoter is analyzed by using a stably transfected THP1 cell line (human monocyte cell line) which is referred to herein as ABCA1 reporter cell line. It contains a fragment, 3.2 kb in size and stably integrated into the genome, of the human ABCA1 promoter in front of a luciferase reporter element. Expression of the luciferase reporter gene is only low without addition of an ABCA1 expression activator. The substances stimulating ABCA1 expression bring about, via activation of the ABCA1 promoter, an enhanced expression of the luciferase reporter gene. The luciferase which is formed can be detected via an appropriate substrate by means of chemiluminescence.
Construction of the Cell Line
The ABCA1 reporter line was prepared as follows: firstly the neomycin resistance gene (Acc. No.: AJ000156) was introduced into the luciferase reporter plasmid pLG3basic (#1751, Promega) 3′ below the luciferase reporter element. Subsequently, an ABCA1 promoter fragment, 3.2 kb in size and amplified from human genomic DNA (#6550-1, Clontech) by the polymerase chain reaction, was cloned in 5′ above the luciferase reporter element. The reporter plasmid produced in this way was called pGL3BN-ABCA1P. Luciferase expression in this plasmid is controlled by the ABCA1 promoter. Cloning and sequencing of the construct took place in analogy to the description in Sambrook J et al. (Molecular cloning, Cold Spring Harbor Laboratory Press, 1989). For stable transfection into THP1 cells, firstly pGL3BN-ABCA1P was linearized with a restriction endonuclease and then introduced into the THP1 cells as stated in Ausubel, F. M. et al. (Current protocols in molecular biology, Vol. 1-3, John Wiley & Sons, Inc., 1995).
The activity of ABCA1 expression activators is determined in a 3-day test which is described below:
The ABCA1 reporter cell line comprises suspension cells. These are cultured until the concentration is 0.5×10^6 cells/ml in RPMI medium (#52400-025, Invitrogen) which is mixed with the following additions: 10% FCS (fetal calf serum; #16000-044, invitrogen), 0.5 mg/ml Geneticin (#10131-019, invitrogen) and 1% penicillin-streptomycin solution (#15140-122, invitrogen). The culturing takes place in standard cell culture flasks (#353112, Becton Dickinson) in a cell culture incubator at 37° C. in the presence of 5% CO2.
For the ABCA1 promoter test, the suspension cells are centrifuged at 1200 rpm in 50 ml tubes. The supernatant is aspirated off, and the pellet is resuspended in 15 ml of RPMI medium and counted in a cell counter. After dilution to 175 000 cells/ml, 0.1 μg/ml PMA (phorbol 12-myristate 13-acetate, #8139-5MG, Sigma) is added in order to induce differentiation of the monocytic THP1 suspension cells into adherent macrophages. 35 000 cells in each well are seeded in a 96-well microtiter plate with clear plastic base (#3610, Corning Costar). The plates are incubated in a cell culture incubator at 37° C. and 5% CO2 for 24 h.
The ABCA1 expression activators to be tested are dissolved in a concentration of 10 mM in DMSO. This stock solution is diluted in the RPMI medium (mixed with 0.1 μg/ml PMA) described above. Test substances are tested in 11 different concentrations in the range from […] to 330 pM. The medium of the ABCA1 reporter cell line seeded on day 1 is completely removed by aspiration and the diluted test substances are immediately added to the cells. The dilution and addition of the substances takes place with a pipetting robot (Beckman FX). The final volume of the test substances diluted in medium is 100 μl per well of a 96-well microtiter plate. The DMSO concentration in the test is less than 0.1% v/v in order to avoid cytotoxic effects of the solvent.
The test plates are incubated in an incubator at 37° C. and 5% CO2 for 24 h.
The ABCA1 reporter cells treated with the test substances are removed from the incubator and the medium is aspirated off. […]
(A reporter such as luciferase makes a cellular process visible.)
Regarding `Cc1ccc(C)c(N2CCN(C(=O)[C@H]3CN(S(=O)(=O)c4cccs4)C[C@H]3c3ccccc3)CC2)c1` (racemic) [Example 117, [4-(2,5-Dimethylphenyl)piperazin-1-yl]-[3,4-cis-4-phenyl-1-(thiophene-2-sulfonyl)pyrrolidin-3-yl]methanone], the EC50 was determined as 291 nM.

The same assay, now with this note: Homo sapiens, THP-1; ABCA1 reporter cell line (THP1, PMA-differentiated), 24 h incubation, luciferase chemiluminescence; read-out: E50 ABCA1.
Take `Cc1ccc(C)c(N2CCN(C(=O)[C@@H]3CN(S(=O)(=O)c4sc5ccc(Cl)cc5c4C)C[C@H]3c3ccccc3)CC2)c1` (racemic) [Example 51, [1-(5-Chloro-3-methylbenzo[b]thiophene-2-sulfonyl)-3,4-trans-4-phenyl-pyrrolidin-3-yl]-[4-(2,5-dimethylphenyl)piperazin-1-yl]methanone]: the EC50 is 2770 nM.

For `Cc1cccc(N2CCN(C(=O)[C@@H]3CN(S(=O)(=O)c4cccs4)C[C@H]3c3ccccc3)CC2)c1C` (racemic) [Example 52], the EC50 amounted to 3270 nM.

`Cc1cccc(N2CCN(C(=O)[C@@H]3CN(S(=O)(=O)c4cc(Br)c(Br)s4)C[C@H]3c3ccccc3)CC2)c1C` (racemic) [Example 53, [1-(4,5-Dibromothiophene-2-sulfonyl)-3,4-trans-4-phenylpyrrolidin-3-yl]-[4-(2,3-dimethylphenyl)piperazin-1-yl]methanone]: the EC50 was 5760 nM.

For `Cc1cccc(N2CCN(C(=O)[C@@H]3CN(S(=O)(=O)c4ccc(Cl)s4)C[C@H]3c3ccccc3)CC2)c1C` (racemic) [Example 54, [1-(5-Chlorothiophene-2-sulfonyl)-3,4-trans-4-phenylpyrrolidin-3-yl]-[4-(2,3-dimethylphenyl)piperazin-1-yl]methanone], the EC50 worked out at 4630 nM.

Take `Cc1cccc(N2CCN(C(=O)[C@@H]3CN(S(=O)(=O)c4cc(Cl)c(Cl)s4)C[C@H]3c3ccccc3)CC2)c1C` (racemic) [Example 55, [1-(4,5-Dichlorothiophene-2-sulfonyl)-3,4-trans-4-phenylpyrrolidin-3-yl]-[4-(2,3-dimethylphenyl)piperazin-1-yl]methanone]: the EC50 is 826 nM.

`COc1ccc(N2CCN(C(=O)[C@@H]3CN(S(=O)(=O)c4cc(Br)c(Br)s4)C[C@H]3c3ccccc3)CC2)cc1` (racemic) [Example 59]: the EC50 is 1160 nM.

For `COc1ccc(N2CCN(C(=O)[C@@H]3CN(S(=O)(=O)c4ccc(Cl)s4)C[C@H]3c3ccccc3)CC2)cc1` (racemic) [Example 60, [1-(5-Chlorothiophene-2-sulfonyl)-3,4-trans-4-phenylpyrrolidin-3-yl]-[4-(4-methoxyphenyl)piperazin-1-yl]methanone], the EC50 was found to be 6680 nM.

As to `COc1ccc(N2CCN(C(=O)[C@@H]3CN(S(=O)(=O)c4cc(Cl)c(Cl)s4)C[C@H]3c3ccccc3)CC2)cc1` (racemic) [Example 61, [1-(4,5-Dichlorothiophene-2-sulfonyl)-3,4-trans-4-phenylpyrrolidin-3-yl]-[4-(4-methoxyphenyl)piperazin-1-yl]methanone], the EC50 is 2610 nM.

On to `O=C([C@@H]1CN(S(=O)(=O)c2cc(Br)c(Br)s2)C[C@H]1c1ccccc1)N1CCN(c2ccccc2)CC1` (racemic) [Example 64, [1-(4,5-Dibromothiophene-2-sulfonyl)-3,4-trans-4-phenylpyrrolidin-3-yl]-(4-phenylpiperazin-1-yl)methanone], for which the EC50 stood at 3160 nM.

For `Cc1ccc(C)c(N2CCN(C(=O)[C@@H]3CN(S(=O)(=O)c4cccs4)C[C@H]3c3ccccc3)CC2)c1` (racemic) [Example 67, [4-(2,5-Dimethylphenyl)piperazin-1-yl]-[3,4-trans-4-phenyl-1-(thiophene-2-sulfonyl)pyrrolidin-3-yl]methanone], the EC50 was 2190 nM.

Take `COc1cccc(S(=O)(=O)N2C[C@@H](C(=O)N3CCN(c4cc(C)ccc4C)CC3)[C@H](c3ccccc3)C2)c1` (racemic) [Example 69, [4-(2,5-Dimethylphenyl)piperazin-1-yl]-[1-(3-methoxybenzenesulfonyl)-3,4-trans-4-phenylpyrrolidin-3-yl]methanone]: the EC50 worked out at 330 nM.

For `Cc1ccc(C)c(N2CCN(C(=O)[C@@H]3CN(S(=O)(=O)c4c(C)noc4C)C[C@H]3c3ccccc3)CC2)c1` (racemic) [Example 71, [1-(3,5-Dimethylisoxazole-4-sulfonyl)-3,4-trans-4-phenylpyrrolidin-3-yl]-[4-(2,5-dimethylphenyl)piperazin-1-yl]methanone], the EC50 is 381 nM.

For `COc1cccc(S(=O)(=O)N2C[C@@H](C(=O)N3CCN(c4c(C)cccc4C)CC3)[C@H](c3ccccc3)C2)c1` (racemic) [Example 86], the EC50 came out at 459 nM.

On to `Cc1ccc([C@@H]2CN(S(=O)(=O)c3c(C)noc3C)C[C@H]2C(=O)N2CCN(c3cc(C)ccc3C)CC2)cc1` [Example 1, [1-(3,5-Dimethylisoxazole-4-sulfonyl)-3,4-trans-4-p-tolylpyrrolidin-3-yl]-[4-(2,5-dimethylphenyl)piperazin-1-yl]methanone trifluoroacetate], for which the EC50 was determined as 2840 nM.

With `O=C([C@@H]1CN(S(=O)(=O)c2cc(Cl)c(Cl)s2)C[C@H]1c1ccccc1)N1CCN(c2ccccc2)CC1` [Example 21, [1-(4,5-Dichlorothiophene-2-sulfonyl)-3,4-trans-4-phenylpyrrolidin-3-yl]-(4-phenylpiperazin-1-yl)methanone], the EC50 came out at 4620 nM.

For `O=C([C@@H]1CN(S(=O)(=O)c2cccs2)C[C@H]1c1ccccc1)N1CCN(c2cc(Cl)ccc2Cl)CC1` [Example 66, [4-(2,5-Dichlorophenyl)piperazin-1-yl]-[3,4-trans-4-phenyl-1-(thiophene-2-sulfonyl)pyrrolidin-3-yl]methanone trifluoroacetate], the EC50 came to 432 nM.

For the molecule `Cc1ccc(C)c(N2CCN(C(=O)[C@@H]3CN(S(=O)(=O)c4cccc5nonc45)C[C@H]3c3ccccc3)CC2)c1` [Example 68, [1-(Benzene[1,2,5-oxadiazol-4-sulfonyl)-3,4-trans-4-phenylpyrrolidin-3-yl]-[4-(2,5-dimethylphenyl)piperazin-1-yl]methanone trifluoroacetate], the EC50 was 869 nM.

In the case of `Cc1ccc(C)c(N2CCN(C(=O)[C@@H]3CN(S(=O)(=O)C(C)C)C[C@H]3c3ccccc3)CC2)c1` [Example 70, [4-(2,5-Dimethylphenyl)piperazin-1-yl]-[3,4-trans-4-phenyl-1-(propan-2-sulfonyl)pyrrolidin-3-yl]methanone trifluoroacetate], the EC50 amounted to 915 nM.

For the molecule `Cc1ccc(C)c(N2CCN(C(=O)[C@@H]3CN(S(=O)(=O)c4cccnc4)C[C@H]3c3ccccc3)CC2)c1` [Example 72, [4-(2,5-Dimethylphenyl)piperazin-1-yl]-[3,4-trans-4-phenyl-1-(pyridine-3-sulfonyl)pyrrolidin-3-yl]methanone trifluoroacetate], the EC50 was 241 nM.

With `O=C([C@@H]1CN(S(=O)(=O)c2cccnc2)C[C@H]1c1ccccc1)N1CCN(c2cc(Cl)ccc2Cl)CC1` [Example 73, [4-(2,5-Dichlorophenyl)piperazin-1-yl]-[3,4-trans-4-phenyl-1-(pyridine-3-sulfonyl)pyrrolidin-3-yl]methanone trifluoroacetate], the EC50 was 407 nM.

For `Cc1cccc(S(=O)(=O)N2C[C@@H](C(=O)N3CCN(c4cc(Cl)ccc4Cl)CC3)[C@H](c3ccccc3)C2)c1` [Example 74, [4-(2,5-Dichlorophenyl)piperazin-1-yl]-[3,4-trans-4-phenyl-1-(toluene-3-sulfonyl)pyrrolidin-3-yl]methanone trifluoroacetate], the EC50 is 340 nM.

(Values after patent publication US7468369B2, “Sulfonyl pyrrolidines, method for producing the same and their use as drugs” (Sanofi-Aventis, priority 2005, dated 2008).)
